Where a name gives a salt, the structure may show the parent alone.
Assays:
[1] = molecular target: human alpha1 nicotinic acetylcholine (nACh) receptor (Homo sapiens, UniProt P02708+Q07001); assay: Nicotinic Acetylcholine Receptor Antagonism Assay (IONFlux automated patch clamp); format: cell-based; conditions: for IC50: antagonism of nAChR stimulated with acetylcholine, average if several runs; for Emax at 100 µM: maximum percentage antagonism at Maximum Concentration of Compound Tested 100 μM, read-out: Maximum Response (%)
Experimental: Cells expressing human alpha1 nicotinic acetylcholine (nACh) receptor (nAChR) were washed and dissociated using Trypsin containing buffer. Cells were then washed and seeded at a density of 3-5 million cells/mL and allowed to grow for 3 days. Then, 60-80 μL of cells were added to plates and incubated with dose response of an ARM compound of Formula (I) with a top concentration of either 10 μM or 100 μM. The receptor was then stimulated via addition of acetylcholine (ACh) and activation of the receptor was monitored via the IONFlux automated patch clamp system. IonFlux Data Analyzer software was utilized to perform leak subtraction and measure (min) peak current amplitude.
Data processing: (1) Current values recorded for vehicle only applications in individual traps/patterns were subtracted from corresponding current amplitude values for control, test article and control+test article. (2) Control response was calculated as % of the average response of the 3rd out of total 3 ACh (10 mM) applications alone. In rare situations, if the 3rd ACh response was obscured due to technical artifacts, the 2nd and/or 1st ACh (10 mM) application was considered as control. The peak current amplitude generated in the presence of each test article concentration was then used to calculate the % inhibition as compared to control response (10 mM ACh alone). These estimates were further corrected for vehicle response and run down corrected by normalizing with time matched control responses (10 mM ACh alone). The corrected percentages were then fit with a non-linear function in GraphPad Prism 6 (or later versions) to determine the IC50.
Exclusion criteria: (i) any n's with poor recording quality, (ii) control current amplitude <500 pA or (iii) significant outliers, as determined by the Grubbs' test.
ARMs compounds of Formula (I) of the invention were tested for antagonism of the nAChR in the above assay in […] experimental runs and the results are shown in Table 6 below. Antagonistic activity of the compounds of Formula (I) of the invention is reported as an IC50 value (half maximal inhibitory concentration) and the maximum percentage antagonism observed at the highest concentration of compound of Formula (I) tested, as indicated in Table 6. For compounds tested in more than one experimental run, the IC50 value is reported as an average.

[2] = Blood drug concentration analysis (LC-MS/MS) in In Vivo Depletion Assay; conditions: human CCR2 (hCCR2) knock-in, 057 background, mouse, whole blood, hCCR2 knock-in mice, IV 0.1 mpk compound + 10 mpk anti-cotinine antibody, 48 hours post-dose, read-out: Exposure of Compound of Formula (I) 48 hours post-dose
Experimental: Human CCR2 (hCCR2) knock-in mice (057 background) were dosed intravenously with a PBS solution containing a compound of Formula (I) to measure depletion of CCR2 expressing cells in peripheral blood. Peripheral blood from IV dosed mice was also analyzed to determine PK properties of the ARM compounds of Formula (I).
Administration to Animal: Solution formulation of antibody and compound of Formula (I) was injected (bolus injection) to the restrained mouse in the right/left lateral tail vein. Animals were dosed with 0.1 milligram per kilogram (mpk) of the compound of Formula (I) and 10 mpk of the anti-cotinine antibody.
Collection of Blood for PK: Blood was collected at time points 0.25 hour, 2 hours, and […] following administration (50 μL/time point) through retro-orbital bleeding under mild isoflurane anesthesia.
Terminal bleeding at end of experiment (48 hr): Approximately 250 μL of blood in K2EDTA tube and approximately 250 μL of blood in SST (serum separation tube) was collected from each mouse through retro-orbital bleeding under deep isoflurane anesthesia. After bleeding, each mouse was sacrificed by cervical dislocation. The blood distribution at termination was determined as follows: • For PK: 50 μL of K2EDTA blood was transferred to another tube for PK • Flow cytometry: Remaining blood (˜200 μL) was used for flow cytometry analysis. • For serum collection: serum separator tubes (BD) were centrifuged at 4° C., 5000 rpm for 15 minutes. Approximately 100 μL serum was separated and stored at −80° C. for further usage. • Blood drug concentration: Samples collected at the various timepoints (0.25 hr, 2 hr, 24 and 48 hr) were analyzed to determine blood drug concentration.
Drug concentration in blood samples was determined by an LC-MS/MS-based bioanalytical method developed at Syngene. Samples were analyzed on Q-Trap, API-5500 LC-MS/MS system coupled with Exion UHPLC system from SCIEX, USA operated in multiple reaction monitoring mode employing electrospray ionization technique in positive polarity. Analyte and internal standard peaks were resolved on Synergi Polar, 75×2.0 mm, 4μ column using mobile phase 10 mM Ammonium acetate in Milli-Q water as phase A and 0.1% Formic acid in acetonitrile as Phase B. Gradient elution was performed with initial composition 95% Phase A at 0.0 min, holding it for 0.2 minutes, ramping to 5% by 1.0 minute, keeping the same for next 0.5 minutes and coming back to 95% by 1.6 minutes. The total run time was 2 minutes.
Working dilutions for calibration curve and quality control standards were prepared by serially diluting 20 mg/mL stock solution with DMSO. Spiked concentrations for calibration curve in the whole blood ranged from 1 ng/mL to 1000 ng/mL. The working solution of internal standard (Verapamil, 25 ng/mL) was prepared in acetonitrile. 10 μL of the study sample and calibration curve, quality control, and blank whole blood samples were aliquoted in 96 deep well plates for processing. 10 μL of Milli-Q water was added to all the samples and briefly vortexed to initiate complete hemolysis. 10 μL of 20 mM dithiothreitol (OTT) was added to all the samples and incubated for 30 minutes at 37° C. The addition of DTT enhanced the recovery of ARM compounds of Formula (I) from the biological matrix. 300 μL of working internal standard solution was added to all samples except total blank and wash samples, where 300 μL of acetonitrile was added. All the samples were vortex mixed for 5 minutes, followed by centrifugation at 4000 rpm for 10 minutes at 4° C. Supernatants were transferred to the loading plate and injected 3 μL to LC-MS/MS system for analysis. The results are shown below in Table 4 and are reported as compound exposure 48 hours post-dose

Chain of human alpha1 nicotinic acetylcholine (nACh) receptor (P02708 21-457): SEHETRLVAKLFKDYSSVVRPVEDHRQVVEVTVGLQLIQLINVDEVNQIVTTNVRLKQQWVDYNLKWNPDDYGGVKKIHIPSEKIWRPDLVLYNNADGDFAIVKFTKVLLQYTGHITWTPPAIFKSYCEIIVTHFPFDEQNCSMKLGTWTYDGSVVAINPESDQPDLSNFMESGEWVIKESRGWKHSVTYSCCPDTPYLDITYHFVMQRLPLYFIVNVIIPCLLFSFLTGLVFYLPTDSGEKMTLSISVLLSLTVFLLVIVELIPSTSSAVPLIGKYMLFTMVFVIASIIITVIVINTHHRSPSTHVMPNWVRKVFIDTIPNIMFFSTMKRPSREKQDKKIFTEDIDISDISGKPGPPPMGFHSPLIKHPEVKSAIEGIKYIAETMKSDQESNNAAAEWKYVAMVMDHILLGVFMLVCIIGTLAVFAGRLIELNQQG
Chain of human alpha1 nicotinic acetylcholine (nACh) receptor (P11230 24-501 partner): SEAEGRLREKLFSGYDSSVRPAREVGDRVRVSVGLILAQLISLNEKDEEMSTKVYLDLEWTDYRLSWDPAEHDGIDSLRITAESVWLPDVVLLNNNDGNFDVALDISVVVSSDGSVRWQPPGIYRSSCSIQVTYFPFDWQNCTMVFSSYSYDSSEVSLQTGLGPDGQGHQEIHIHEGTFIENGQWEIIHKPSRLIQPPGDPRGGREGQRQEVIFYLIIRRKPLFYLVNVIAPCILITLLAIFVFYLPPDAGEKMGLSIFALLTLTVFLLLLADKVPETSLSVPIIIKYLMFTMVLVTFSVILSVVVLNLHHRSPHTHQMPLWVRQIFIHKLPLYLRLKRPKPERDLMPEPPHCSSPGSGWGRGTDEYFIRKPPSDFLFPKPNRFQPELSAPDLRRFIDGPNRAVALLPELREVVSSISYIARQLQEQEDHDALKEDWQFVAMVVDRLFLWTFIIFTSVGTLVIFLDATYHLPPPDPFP
Chain of human alpha1 nicotinic acetylcholine (nACh) receptor (Q07001 22-517): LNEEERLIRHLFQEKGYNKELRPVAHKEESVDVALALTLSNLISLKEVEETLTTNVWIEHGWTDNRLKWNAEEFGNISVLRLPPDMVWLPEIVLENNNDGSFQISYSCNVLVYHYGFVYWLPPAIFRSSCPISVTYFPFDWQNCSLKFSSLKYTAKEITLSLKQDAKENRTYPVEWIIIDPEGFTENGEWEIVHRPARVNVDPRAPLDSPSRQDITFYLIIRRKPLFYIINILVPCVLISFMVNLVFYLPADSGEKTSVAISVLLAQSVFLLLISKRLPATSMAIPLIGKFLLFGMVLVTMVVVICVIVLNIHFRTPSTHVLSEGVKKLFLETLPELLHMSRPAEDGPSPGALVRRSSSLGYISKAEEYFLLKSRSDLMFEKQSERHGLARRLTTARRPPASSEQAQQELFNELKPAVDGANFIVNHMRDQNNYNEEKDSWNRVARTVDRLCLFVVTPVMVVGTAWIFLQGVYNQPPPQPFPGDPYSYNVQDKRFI

CO[C@H]1COCC[C@H]1N[C@H]1CC[C@@](CCCNC(=O)[C@H]2CC[C@@H](NC(=O)CCOCCOCCNC(=O)CCNC(=O)[C@H]3CC(=O)N(C)[C@@H]3c3cccnc3)CC2)(C(=O)N2CCc3ncc(C(F)(F)F)cc3C2)C1 [Example 19, (2S,3S)—N-(3-((2-(2-(3-(((1s,4s)-4-((3-((1R,3S)-3-(((3R,4R)-3-Methoxytetrahydro-2H-pyran-4-yl)amino)-1-(3-(trifluoromethyl)-5,6,7,8-tetrahydro-1,6-naphthyridine-6-carbonyl)cyclopentyl)propyl)carbamoyl)cyclohexyl)amino)-3-oxopropoxy)ethoxy)ethyl)amino)-3-oxopropyl)-1-methyl-5-oxo-2-(pyridin-3-yl)pyrrolidine-3-carboxamide] gave an IC50 [1] greater than 100 µM, an Emax at 100 µM [1] of 8% and a concentration at 48 h [2] of 54.2 ng/mL.
In the case of CO[C@@H]1COCC[C@@H]1N[C@@H]1CC[C@](CCC2CCN(C(=O)[C@H]3CC[C@H](NC(=O)CCCO[C@H]4CC[C@H](OCCNC(=O)[C@H]5CC(=O)N(C)[C@@H]5c5cccnc5)CC4)CC3)CC2)(C(=O)N2CCc3ncc(C(F)(F)F)cc3C2)C1 [Example 2, (2S,3S)—N-(2-(((1R,4S)-4-(4-(((1S,4R)-4-(4-(2-((1S,3R)-3-(((3S,4S)-3-Methoxytetrahydro-2H-pyran-4-yl)amino)-1-(3-(trifluoromethyl)-5,6,7,8-tetrahydro-1,6-naphthyridine-6-carbonyl)cyclopentyl)ethyl)piperidine-1-carbonyl)cyclohexyl)amino)-4-oxobutoxy)cyclohexyl)oxy)ethyl)-1-methyl-5-oxo-2-(pyridin-3-yl)pyrrolidine-3-carboxamide], the IC50 [1] is reported as greater than 100 µM, the Emax at 100 µM [1] is reported as 40% and the concentration at 48 h [2] is reported as 53.2 ng/mL.
With CO[C@@H]1COCC[C@@H]1N[C@@H]1CC[C@](CCCNC(=O)[C@H]2CC[C@@H](NC(=O)CCCO[C@H]3CC[C@@H](OCCNC(=O)[C@H]4CC(=O)N(C)[C@@H]4c4cccnc4)CC3)CC2)(C(=O)N2CCc3ncc(C(F)(F)F)cc3C2)C1 [Example 4, (2S,3S)-N-(2-(((1S,4R)-4-(4-(((1R,4S)-4-((3-((1S,3R)-3-(((3S,4S)-3-Methoxytetrahydro-2H-pyran-4-yl)amino)-1-(3-(trifluoromethyl)-5,6,7,8-tetrahydro-1,6-naphthyridine-6-carbonyl)cyclopentyl)propyl)carbamoyl)cyclohexyl)amino)-4-oxobutoxy)cyclohexyl)oxy)ethyl)-1-methyl-5-oxo-2-(pyridin-3-yl)pyrrolidine-3-carboxamide, Formic acid salt] the Emax at 100 µM [1] was 48% and the concentration at 48 h [2] was 26.6 ng/mL.
With CO[C@@H]1COCC[C@@H]1N[C@@H]1CC[C@](CCNC(=O)[C@H]2CC[C@H](NC(=O)CCCO[C@H]3CC[C@H](OCCNC(=O)[C@H]4CC(=O)N(C)[C@@H]4c4cccnc4)CC3)CC2)(C(=O)N2CCc3ncc(C(F)(F)F)cc3C2)C1 [Example 8, (2S,3S)-N-(2-(((1R,4S)-4-(4-(((1R,4R)-4-((2-((1R,3R)-3-(((3S,4S)-3-Methoxytetrahydro-2H-pyran-4-yl)amino)-1-(3-(trifluoromethyl)-5,6,7,8-tetrahydro-1,6-naphthyridine-6-carbonyl)cyclopentyl)ethyl)carbamoyl)cyclohexyl)amino)-4-oxobutoxy)cyclohexyl)oxy)ethyl)-1-methyl-5-oxo-2-(pyridin-3-yl)pyrrolidine-3-carboxamide] the Emax at 100 µM [1] was 48% and the concentration at 48 h [2] was 74.9 ng/mL.
With CO[C@@H]1COCC[C@@H]1N[C@@H]1CC[C@](CCCCNC(=O)[C@H]2CC[C@H](NC(=O)CCCO[C@H]3CC[C@H](OCCNC(=O)[C@H]4CC(=O)N(C)[C@@H]4c4cccnc4)CC3)CC2)(C(=O)N2CCc3ncc(C(F)(F)F)cc3C2)C1 [Example 7, (2S,3S)-N-(2-(((1R,4S)-4-(4-(((1S,4R)-4-((4-((1S,3R)-3-(((3S,4S)-3-Methoxytetrahydro-2H-pyran-4-yl)amino)-1-(3-(trifluoromethyl)-5,6,7,8-tetrahydro-1,6-naphthyridine-6-carbonyl)cyclopentyl)butyl)carbamoyl)cyclohexyl)amino)-4-oxobutoxy)cyclohexyl)oxy)ethyl)-1-methyl-5-oxo-2-(pyridin-3-yl)pyrrolidine-3-carboxamide] the IC50 [1] was 94 µM, the Emax at 100 µM [1] was 54% and the concentration at 48 h [2] was 54.4 ng/mL.
Compound CO[C@@H]1COCC[C@@H]1N[C@@H]1CC[C@](CCCNC(=O)CCOCCOCCOCCOCCOCCOCCOCCOCCOCCOCCOCCOCCNC(=O)[C@H]2CC(=O)N(C)[C@@H]2c2cccnc2)(C(=O)N2CCc3ncc(C(F)(F)F)cc3C2)C1 [Example 1, (2S,3S)—N-(43-((1S,3R)-3-(((3S,4S)-3-methoxytetrahydro-2H-pyran-4-yl)amino)-1-(3-(trifluoromethyl)-5,6,7,8-tetrahydro-1,6-naphthyridine-6-carbonyl)cyclopentyl)-39-oxo-3,6,9,12,15,18,21,24,27,30,33,36-dodecaoxa-40-azatritetracontyl)-1-methyl-5-oxo-2-(pyridin-3-yl)pyrrolidine-3-carboxamide] has an IC50 [1] greater than 100 µM, an Emax at 100 µM [1] of 29% and a concentration at 48 h [2] of 55.7 ng/mL.
CO[C@@H]1COCC[C@@H]1N[C@@H]1CC[C@](CCCNC(=O)[C@H]2CC[C@H](NC(=O)CCCO[C@H]3CC[C@H](OCCNC(=O)[C@H]4CC(=O)N(C)[C@@H]4c4cccnc4)CC3)CC2)(C(=O)N2CCc3ncc(C(F)(F)F)cc3C2)C1 [Example 3, (2S,3S)-N-(2-(((1R,4S)-4-(4-(((1S,4R)-4-((3-((1S,3R)-3-(((3S,4S)-3-Methoxytetrahydro-2H-pyran-4-yl)amino)-1-(3-(trifluoromethyl)-5,6,7,8-tetrahydro-1,6-naphthyridine-6-carbonyl)cyclopentyl)propyl)carbamoyl)cyclohexyl)amino)-4-oxobutoxy)cyclohexyl)oxy)ethyl)-1-methyl-5-oxo-2-(pyridin-3-yl)pyrrolidine-3-carboxamide] showed an IC50 [1] greater than 100 µM, an Emax at 100 µM [1] of 38% and a concentration at 48 h [2] of 31.3 ng/mL.

Reference: patent US20250154288A1, “CYTOTOXICITY TARGETING CHIMERAS FOR C-C CHEMOKINE RECEPTOR 2-EXPRESSING CELLS” (GLAXOSMITHKLINE INTELLECTUAL PROPERTY DEVELOPMENT LIMITED, priority 2022, published 2025)
